Experimental data published in PubChem BioAssay AID2060886 (Molecular Pharmacology Branch, DTP, NCI, 2025).

System: 653999-131-R-J2-PDC complex spheroids, growth inhibition
Assay: Anticancer human tumor 653999-131-R-J2-PDC patient-derived lung adenocarcinoma cell line growth inhibition [RAS]
Conditions: for viability, T/C: stronger effect = lower value
In short: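 Tumour cells grown as complex spheroids with HUVEC endothelial cells and mesenchymal stem cells, treated with RAS pathway inhibitor combinations. Each agent spans half-log steps from near clinical Cmax, or 10 microM where Cmax is unknown.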

[1] = curve of first compound, second compound 0.000949 µM
[2] = curve of first compound, second compound 0.003 µM
[3] = curve of first compound, second compound 0.00949 µM
[4] = curve of first compound, second compound 0.03 µM
[5] = curve of first compound, second compound 0.0949 µM
[6] = curve of first compound, second compound 0.3 µM
[7] = second compound 0.000949 µM, first compound 0.0316 µM
[8] = second compound 0.000949 µM, first compound 0.1 µM
[9] = second compound 0.000949 µM, first compound 0.316 µM
[10] = second compound 0.000949 µM, first compound 1 µM
[11] = second compound 0.003 µM, first compound 0.0316 µM
[12] = second compound 0.003 µM, first compound 0.1 µM
[13] = second compound 0.003 µM, first compound 0.316 µM
[14] = second compound 0.003 µM, first compound 1 µM
[15] = second compound 0.00949 µM, first compound 0.0316 µM
[16] = second compound 0.00949 µM, first compound 0.1 µM
[17] = second compound 0.00949 µM, first compound 0.316 µM
[18] = second compound 0.00949 µM, first compound 1 µM
[19] = second compound 0.03 µM, first compound 0.0316 µM
[20] = second compound 0.03 µM, first compound 0.1 µM
[21] = second compound 0.03 µM, first compound 0.316 µM
[22] = second compound 0.03 µM, first compound 1 µM
[23] = second compound 0.0949 µM, first compound 0.0316 µM
[24] = second compound 0.0949 µM, first compound 0.1 µM
[25] = second compound 0.0949 µM, first compound 0.316 µM
[26] = second compound 0.0949 µM, first compound 1 µM
[27] = second compound 0.3 µM, first compound 0.0316 µM
[28] = second compound 0.3 µM, first compound 0.1 µM
[29] = second compound 0.3 µM, first compound 0.316 µM
[30] = second compound 0.3 µM, first compound 1 µM
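Note: spheroids exposed to the agents for seven days before the readout.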

O=C(c1ccc(F)c(F)c1Nc1ccc(I)cc1F)N1CC(O)([C@@H]2CCCCN2)C1 + CCn1c(-c2cccnc2C(C)OC)c2c3cc(ccc31)N1CCOC(CC(NC(=O)C(C(C)C)N(C)C(=O)C3(F)CCN(C(=O)C#CC(C)(C)N(C)C)CC3)C(=O)N3CCCC(N3)C(=O)OCC(C)(C)C2)C1
IC50 [1]: 110 nM | IC50 [2]: 122 nM | IC50 [3]: 76.6 nM | IC50 [4]: 81.4 nM | IC50 [5]: 120 nM | IC50 [6]: 82 nM | viability, T/C (second compound 0.000949 µM, first compound 0.00316 µM): 83.6% | viability, T/C (second compound 0.000949 µM, first compound 0.01 µM): 74.5% | viability, T/C [7]: 68.5% | viability, T/C [8]: 55.8% | viability, T/C [9]: 20.6% | viability, T/C [10]: 12% | viability, T/C (second compound 0.003 µM, first compound 0.00316 µM): 82.5% | viability, T/C (second compound 0.003 µM, first compound 0.01 µM): 60% | viability, T/C [11]: 71.3% | viability, T/C [12]: 50.8% | viability, T/C [13]: 38.4% | viability, T/C [14]: 15.4% | viability, T/C (second compound 0.00949 µM, first compound 0.00316 µM): 92.9% | viability, T/C (second compound 0.00949 µM, first compound 0.01 µM): 65.2% | viability, T/C [15]: 63.7% | viability, T/C [16]: 52.3% | viability, T/C [17]: 30.1% | viability, T/C [18]: 13.2% | viability, T/C (second compound 0.03 µM, first compound 0.00316 µM): 77.4% | viability, T/C (second compound 0.03 µM, first compound 0.01 µM): 57.8% | viability, T/C [19]: 64.5% | viability, T/C [20]: 49.6% | viability, T/C [21]: 26.2% | viability, T/C [22]: 14.2% | viability, T/C (second compound 0.0949 µM, first compound 0.00316 µM): 62% | viability, T/C (second compound 0.0949 µM, first compound 0.01 µM): 68.1% | viability, T/C [23]: 66.5% | viability, T/C [24]: 51.7% | viability, T/C [25]: 31.4% | viability, T/C [26]: 13.5% | viability, T/C (second compound 0.3 µM, first compound 0.00316 µM): 65.3% | viability, T/C (second compound 0.3 µM, first compound 0.01 µM): 70.2% | viability, T/C [27]: 73.1% | viability, T/C [28]: 43.4% | viability, T/C [29]: 23.5% | viability, T/C [30]: 10.4%

CC(Nc1ccc2c(c1)OCCn1cc(N3C(=O)OCC3C(F)F)nc1-2)C(N)=O (stereo not drawn) + C#Cc1c(F)ccc2cc(O)cc(-c3ncc4c(N5CC6CCC(C5)N6)nc(OCC56CCCN5CC(F)C6)nc4c3F)c12
IC50 (curve of first compound, second compound 0.0316 µM): 558 nM | IC50 (curve of first compound, second compound 0.1 µM): 273 nM | IC50 (curve of first compound, second compound 0.316 µM): 117 nM | IC50 (curve of first compound, second compound 1 µM): < 31.6 nM | IC50 (curve of first compound, second compound 3.16 µM): < 31.6 nM | IC50 (curve of first compound, second compound 10 µM): < 31.6 nM | viability, T/C (second compound 0.0316 µM, first compound 0.0316 µM): 86.3% | viability, T/C (second compound 0.0316 µM, first compound 0.1 µM): 70.3% | viability, T/C (second compound 0.0316 µM, first compound 0.316 µM): 53.8% | viability, T/C (second compound 0.0316 µM, first compound 1 µM): 44.4% | viability, T/C (second compound 0.0316 µM, first compound 3.16 µM): 35.1% | viability, T/C (second compound 0.0316 µM, first compound 10 µM): 22.3% | viability, T/C (second compound 0.1 µM, first compound 0.0316 µM): 77.2% | viability, T/C (second compound 0.1 µM, first compound 0.1 µM): 66.9% | viability, T/C (second compound 0.1 µM, first compound 0.316 µM): 47% | viability, T/C (second compound 0.1 µM, first compound 1 µM): 32.3% | viability, T/C (second compound 0.1 µM, first compound 3.16 µM): 26.1% | viability, T/C (second compound 0.1 µM, first compound 10 µM): 22.6% | viability, T/C (second compound 0.316 µM, first compound 0.0316 µM): 63.6% | viability, T/C (second compound 0.316 µM, first compound 0.1 µM): 51.2% | viability, T/C (second compound 0.316 µM, first compound 0.316 µM): 39.5% | viability, T/C (second compound 0.316 µM, first compound 1 µM): 25.5% | viability, T/C (second compound 0.316 µM, first compound 3.16 µM): 18.9% | viability, T/C (second compound 0.316 µM, first compound 10 µM): 13.5% | viability, T/C (second compound 1 µM, first compound 0.0316 µM): 39.9% | viability, T/C (second compound 1 µM, first compound 0.1 µM): 35.1% | viability, T/C (second compound 1 µM, first compound 0.316 µM): 28.1% | viability, T/C (second compound 1 µM, first compound 1 µM): 23% | viability, T/C (second compound 1 µM, first compound 3.16 µM): 19% | viability, T/C (second compound 1 µM, first compound 10 µM): 11% | viability, T/C (second compound 3.16 µM, first compound 0.0316 µM): 30.1% | viability, T/C (second compound 3.16 µM, first compound 0.1 µM): 28.4% | viability, T/C (second compound 3.16 µM, first compound 0.316 µM): 22.9% | viability, T/C (second compound 3.16 µM, first compound 1 µM): 11.8% | viability, T/C (second compound 3.16 µM, first compound 3.16 µM): 13.9% | viability, T/C (second compound 3.16 µM, first compound 10 µM): 7.23% | viability, T/C (second compound 10 µM, first compound 0.0316 µM): 17.1% | viability, T/C (second compound 10 µM, first compound 0.1 µM): 14.3% | viability, T/C (second compound 10 µM, first compound 0.316 µM): 10.6% | viability, T/C (second compound 10 µM, first compound 1 µM): 8.07% | viability, T/C (second compound 10 µM, first compound 3.16 µM): 5.81% | viability, T/C (second compound 10 µM, first compound 10 µM): 4.16%

CCc1c2c(nc3ccc(O)cc13)-c1cc3c(c(=O)n1C2)COC(=O)[C@]3(O)CC
viability, T/C (compound 0.000949 µM): 85% [middle of 4 runs] | viability, T/C (compound 0.003 µM): 66.5% [middle of 4 runs] | viability, T/C (compound 0.00949 µM): 49.5% [middle of 4 runs] | viability, T/C (compound 0.03 µM): 38.3% [middle of 4 runs] | viability, T/C (compound 0.0949 µM): 26.5% [middle of 4 runs] | viability, T/C (compound 0.3 µM): 13.7% [middle of 4 runs] | IC50 (curve of compound): 9.95 nM [middle of 4 runs]

CC(C)NCC(C(=O)N1CCN(c2ncnc3c2C(C)CC3O)CC1)c1ccc(Cl)cc1 (stereo not drawn) + CCn1c(-c2cc(N3CCN(C)CC3)cnc2C(C)OC)c2c3cc(ccc31)-c1csc(n1)CC(NC(=O)C1CC1C)C(=O)N1CCCC(N1)C(=O)OCC(C)(C)C2
IC50 [1]: 649 nM | IC50 [2]: 190 nM | IC50 [3]: < 31.6 nM | IC50 [4]: < 31.6 nM | IC50 [5]: < 31.6 nM | IC50 [6]: < 31.6 nM | viability, T/C [7]: 79.2% | viability, T/C [8]: 89.7% | viability, T/C [9]: 61.1% | viability, T/C [10]: 43.9% | viability, T/C (second compound 0.000949 µM, first compound 3.16 µM): 26.6% | viability, T/C (second compound 0.000949 µM, first compound 10 µM): 26.9% | viability, T/C [11]: 72.5% | viability, T/C [12]: 52.9% | viability, T/C [13]: 50.8% | viability, T/C [14]: 29.6% | viability, T/C (second compound 0.003 µM, first compound 3.16 µM): 26.6% | viability, T/C (second compound 0.003 µM, first compound 10 µM): 20.4% | viability, T/C [15]: 49.7% | viability, T/C [16]: 39.6% | viability, T/C [17]: 38.4% | viability, T/C [18]: 28.8% | viability, T/C (second compound 0.00949 µM, first compound 3.16 µM): 16.4% | viability, T/C (second compound 0.00949 µM, first compound 10 µM): 14.4% | viability, T/C [19]: 34.2% | viability, T/C [20]: 36.5% | viability, T/C [21]: 23.9% | viability, T/C [22]: 18.6% | viability, T/C (second compound 0.03 µM, first compound 3.16 µM): 10.3% | viability, T/C (second compound 0.03 µM, first compound 10 µM): 9.69% | viability, T/C [23]: 27.3% | viability, T/C [24]: 23.8% | viability, T/C [25]: 18.5% | viability, T/C [26]: 13.7% | viability, T/C (second compound 0.0949 µM, first compound 3.16 µM): 9.85% | viability, T/C (second compound 0.0949 µM, first compound 10 µM): 5.97% | viability, T/C [27]: 24% | viability, T/C [28]: 20.4% | viability, T/C [29]: 20.9% | viability, T/C [30]: 14.7% | viability, T/C (second compound 0.3 µM, first compound 3.16 µM): 8.46% | viability, T/C (second compound 0.3 µM, first compound 10 µM): 5.88%
